Results: paper PMC9238401, “Peptide Conjugates Derived from flg15, Pep13, and PIP1 That Are Active against Plant-Pathogenic Bacteria and Trigger Plant Defense Responses” (Applied and Environmental Microbiology, 2022)
Marks after values point to notes of the source that are not given here. Non-standard residues stand in square brackets, D forms with d. Residues, ends and D or L forms follow the SMILES beside them. *: point of attachment. Butyryl = CCCC(=O)*

Legend:
[1] = tested on: Erwinia amylovora PMV6076; assay: In vitro growth inhibition (MIC); format: cell-based; conditions: TSB, 25°C, 48 h, OD 600 nm (Bioscreen C), three replicates, experiment repeated twice; MIC = lowest concentration with no growth, given as range
Summary of the method: (§1)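 Bacterial suspensions (10^8 CFU mL^−1, from 24 h plates at 25°C) mixed with peptide dilutions in TSB, triplicate wells. OD600 read hourly over 48 h at 25°C with shaking. MIC = lowest concentration with no growth at end of run.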

[2] = tested on: Pseudomonas syringae pv. syringae EPS94; assay: In vitro growth inhibition (MIC); format: cell-based; conditions: TSB, 25°C, 48 h, OD 600 nm (Bioscreen C), three replicates, experiment repeated twice; MIC given as range
Summary of the method: as §1

[3] = tested on: Pseudomonas syringae pv. actinidiae Psa3700.1.1; assay: In vitro growth inhibition (MIC); format: cell-based; conditions: TSB, 25°C, 48 h, OD 600 nm (Bioscreen C), three replicates, experiment repeated twice; MIC given as range
Summary of the method: as §1

[4] = tested on: Xanthomonas fragariae Xf349-9A; assay: In vitro growth inhibition (MIC); format: cell-based; conditions: TSB, 25°C, 48 h, OD 600 nm (Bioscreen C), three replicates, experiment repeated twice; MIC given as range
Summary of the method: as §1

[5] = tested on: tomato plants cv. Rio Grande, defense-related genes; assay: Induction of defense gene expression in tomato plants (RT-qPCR); format: in vivo; conditions: peptide sprayed at 125 μM, leaves 24 h after application, ΔΔCT vs actin and nontreated control; for PR1 expression, fold induction: above 2 = overexpression
Method: The capacity to induce the expression of genes related to defense response in tomato plants was evaluated for the peptide conjugates flg15-BP387, flg15-BP475, and PIP1-BP475 and the monomers flg15 and PIP1 (Table 2).
Seeds of tomato cv. Rio Grande plants were sown in hydroponic seed plugs (rockwool) and germinated and grown in an environmentally controlled greenhouse at 25 ± 2°C (day) and 18 ± 2°C (night), with a minimum relative humidity of 60% and with a photoperiod of 16 h light and 8 h dark. Then, 2-week-old seedlings (two cotyledons) were transplanted into rockwool plugs (7.5 × 7.5 × 6.5 cm; Gordan Iberica, Spain). Tomato plants were maintained until use under the same environmental conditions.
The 2-week-old tomato plants cv. Rio Grande were sprayed with aqueous solutions of the peptides flg15-BP387, flg15-BP475, PIP1-BP475, flg15, and PIP1 at 125 μM until the runoff point. […] Water-sprayed plants were used as nontreated controls (NTC). The experimental design consisted of three replicates of three plants per treatment. Leaf samples were collected 24 h after product application and processed to extract RNA for reverse transcriptase quantitative PCR (RT-qPCR) assays. Plant material was roughly ground in liquid nitrogen and was transferred into tubes with two glass beads. Afterward, the frozen samples were finely ground using the TissueLyser II system (Qiagen, Hilden, Germany) at a frequency of 30 Hz for 1 min. Total RNA was extracted from leaves (100 mg) using PureLink plant RNA reagent (Invitrogen, Life Technologies) according to the manufacturer’s manual. The RNA was solubilized in RNase-free water (Ambion, Thermo Fisher Scientific, USA) and was routinely subjected to DNase treatment (Ambion Turbo DNA-free; Invitrogen Life Technologies, Carlsbad, CA, USA) to remove any contaminant DNA. In each step, the RNA was quantified using a NanoDrop ND-1000 spectrophotometer (Nanodrop Technologies, Wilmington, DE, USA). First-strand cDNA was generated from leaf RNA using reverse transcriptase (high-capacity cDNA reverse transcription kit; Applied Biosystems, Foster City, CA, USA) according to the manufacturer’s manual.
To test gene defense induction in the treated tomato plants, a quantitative PCR (qPCR) assay was performed. qPCR was carried out in a fluorometric thermal cycler (7500 Fast real-time PCR system; Applied Biosystems, USA) by using a Mix SYBR green PCR master mix (Applied Biosystems, Foster City, CA, USA) as previously described ([49]). Melting curve analysis was performed after each amplification to verify amplification specificity. A constitutive gene (actin) was used as a reference control ([52]), and the following genes implicated in plant defense response were analyzed using the previously described primers: pathogenesis-related protein-1 (PR1) and chitinase A (PR3) ([81]), subtilisin-like protease P69G (PR7), peroxidase 1 (PR9), WRKY3 transcription factor (WRKY3), hairpin-induced protein-like (Harp), blue-copper-binding protein gene (BCB) and ethylene responsive transcription factor (ERF) ([71]), and basic β-1,3-endoglucanase (GluB) ([52]). The primer concentration was 100 nM for all the genes except for the actin gene, for which the concentration was 300 nM. A calibration curve was prepared by cloning the corresponding target sequence in the pSpark cloning vector (Canvax, Córdoba, Spain), which was used to transform Escherichia coli DH5α. Plasmids were purified (Qiagen Iberia, S.L., Madrid, Spain), plasmid copies were quantified, and decimal dilutions were prepared.

Compound | MIC, Ea [1] [µM] | MIC, Pss [2] [µM] | MIC, Psa [3] [µM] | MIC, Xf [4] [µM] | BCB expression, fold induction [5] | ERF expression, fold induction [5] | GluB expression, fold induction [5] | Harp expression, fold induction [5] | PR3 expression, fold induction [5] | PR7 expression, fold induction [5] | PR9 expression, fold induction [5] | WRKY3 expression, fold induction [5] [fold] | PR1 expression, fold induction [5]
CCCC(=O)NCCCC[C@H](NC(=O)[C@H](CCCCN)NC(=O)[C@H](CC(C)C)NC(=O)[C@@H](NC(=O)[C@H](CCCCN)NC(=O)[C@H](CCCCN)NC(=O)[C@@H](Cc1ccccc1)NC(=O)[C@H](CC(C)C)NC(=O)[C@H](CCCCN)NC(=O)[C@H](CCCCN)NC(=O)[C@H](Cc1c[nH]cn1)NC(=O)[C@@H](NC(=O)[C@H](Cc1c[nH]cn1)NC(=O)[C@@H](NC(=O)CNC(=O)[C@H](Cc1ccc(O)cc1)NC(C)=O)[C@@H](C)CC)[C@@H](C)O)[C@@H](C)CC)C(=O)N[C@@H](CC(C)C)C(N)=O [PIP1-BP475] (Ac-YGIHTHKKL[dF]KKILKK(Butyryl)L-NH2) | 3.1 to 6.2 | 3.1 to 6.2 | 1.6 to 3.1 | 12.5 to 25 | 2.07 ± 0.11^d fold | 0.81 ± 0.30 fold | 0.80 ± 0.07 fold | 2.25 ± 0.12^d fold | 7.36 ± 1.05^d fold | 1.29 ± 0.19^d fold | 1.99 ± 0.11^d fold | 1.46 ± 0.11 | 0.64 ± 0.36 fold
CCCC(=O)NCCCC[C@H](NC(=O)[C@H](CCCCN)NC(=O)[C@H](CC(C)C)NC(=O)[C@@H](NC(=O)[C@H](CCCCN)NC(=O)[C@H](CCCCN)NC(=O)[C@@H](Cc1ccccc1)NC(=O)[C@H](CC(C)C)NC(=O)[C@H](CCCCN)NC(=O)[C@H](CCCCN)NC(=O)[C@H](C)NC(=O)[C@@H](NC(=O)[C@H](CCC(N)=O)NC(=O)[C@H](CC(C)C)NC(=O)CNC(=O)[C@H](C)NC(=O)[C@H](C)NC(=O)[C@H](CC(=O)O)NC(=O)[C@H](CC(=O)O)NC(=O)[C@H](CCCCN)NC(=O)[C@H](C)NC(=O)[C@H](CO)NC(=O)[C@H](CC(N)=O)NC(=O)[C@@H](NC(=O)[C@H](CCCNC(=N)N)NC(C)=O)[C@@H](C)CC)[C@@H](C)CC)[C@@H](C)CC)C(=O)N[C@@H](CC(C)C)C(N)=O [flg15-BP475] (Ac-RINSAKDDAAGLQIAKKL[dF]KKILKK(Butyryl)L-NH2) | 3.1 to 6.2 | 12.5 to 25 | 3.1 to 6.2 | 6.2 to 12.5 | 5.84 ± 1.38^d fold | 0.67 ± 0.15^d fold | 4.31 ± 0.82^d fold | 3.68 ± 0.91^d fold | 10.96 ± 1.85^d fold | 5.82 ± 0.78^d fold | 3.83 ± 0.25^d fold | 1.16 ± 0.26 | 2.02 ± 0.07^d fold
RINSAKDDAAGLQIA-OH [flg15, plant defense elicitor peptide, 15 amino acids of the N-terminal conserved domain of bacterial flagellin; monomer] | > 100 | > 100 | > 100 | > 100 | 8.14 ± 2.48^d fold | 1.09 ± 0.44 fold | 6.05 ± 2.40^d fold | 4.28 ± 1.49^d fold | 17.68 ± 4.18^d fold | 9.26 ± 2.06^d fold | 6.24 ± 2.25^d fold | 1.41 ± 0.84 | 8.32 ± 3.35^d fold
YGIHTH-NH2 [PIP1, plant defense elicitor peptide identified through combinatorial chemistry; monomer] | > 50 | > 50 | > 50 | > 50 | 1.99 ± 0.40^d fold | 0.58 ± 0.11^d fold | 0.96 ± 0.32 fold | 1.97 ± 0.45^d fold | 3.59 ± 1.35^d fold | 1.13 ± 0.26 fold | 1.23 ± 0.18 fold | 0.94 ± 0.35 | 1.00 ± 0.39 fold
